Source: publication PMC11258615 (RSC Advances, 2024)
Entries after “also recorded” stand apart in the source; their conditions may differ.

Target: mushroom tyrosinase (Agaricus bisporus, UniProt C7FF04)
Experiment: Kinetic analysis of tyrosinase inhibition
Details: L-DOPA 0.5 to 3 mM

Chain of mushroom tyrosinase (C7FF04 1-392): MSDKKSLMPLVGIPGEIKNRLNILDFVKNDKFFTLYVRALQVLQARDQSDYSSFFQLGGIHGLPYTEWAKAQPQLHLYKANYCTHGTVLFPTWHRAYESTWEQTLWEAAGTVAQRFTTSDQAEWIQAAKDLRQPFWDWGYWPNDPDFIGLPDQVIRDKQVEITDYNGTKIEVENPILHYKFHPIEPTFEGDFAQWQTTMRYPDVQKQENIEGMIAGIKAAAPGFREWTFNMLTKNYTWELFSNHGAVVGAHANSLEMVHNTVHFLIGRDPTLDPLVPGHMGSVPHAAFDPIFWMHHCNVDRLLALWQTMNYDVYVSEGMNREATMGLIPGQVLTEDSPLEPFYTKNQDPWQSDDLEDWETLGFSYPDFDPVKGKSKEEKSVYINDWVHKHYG

## Nc1ccc(-c2cc(-c3ccc(-c4cc(-c5ccc(N)cc5)nc(N)n4)cc3)nc(N)n2)cc1 [Compound 6P, 6,6′-(1,4-phenylene)bis[4-(4-aminophenyl)pyrimidin-2-amine]]
  Type of tyrosinase inhibition (Lineweaver-Burk plots): mixed-type inhibitor; also recorded: mixed-type inhibition
